Consider one molecule from patent US20050059725A1, “Methods of using and preparing thiolutin dioxide” (Aventis Pharma Deutschland GmbH, priority 2001, published 2005).

The structures appear in SMILES notation.

Format in all cases: biochemical
For one experiment, the target named is neurolysin (Homo sapiens, UniProt Q9BYT8). Put plainly: Neurolysin inhibition assay (fluorogenic substrate, 384-well). To be noted: substrate Mcc-Pro-Leu-Gly-D-Lys(Dnp)-OH 4 μM, 30° C., 30 min, Tris buffer pH 7.5. The method, then:
An assay was performed on a CyBio pipetting system in a 384-well plate format in a final assay volume of 16 μl. In brief, 4 μl of appropriately diluted microbial extracts (dilution in 50 mM Tris buffer, pH 7.5) were distributed in wells of test plates (Greiner, white 384-small volume well plates). Thereafter, 4 μl of neurolysin (pre-diluted 1:5, 360 ng of protein) were added to each well. After a 10 minute pre-incubation of the samples and the enzyme at room temperature, the reaction was initiated by the addition of 8 μl of substrate (Mcc-Pro-Leu-Gly-D-Lys (Dnp)—OH, CALBIOCHEM) in Tris buffer. The final test concentration of the substrate was 4 μM.
After pipetting, the plates were immediately placed in a fluorometer (SpectraFluorplus, SLT) and the initial amount of fluorescence was read (λex: 360 nm/λem405 nm). The reaction was then allowed to proceed at 30° C. for 30 min, and a final fluorescence reading was taken.
The data are first blank corrected. Then, after subtracting the values at the zero time point from the respective values after 30 min, sample inhibition activity was expressed as 100−(Net Intensity compound/Net Intensity control)×100(%)
Each test plate contained a reasonable number of positive controls and blanks (buffer instead of enzyme).

Another experiment deals with enkephalinase (Homo sapiens, UniProt P08473). The experiment in a line: Selectivity against other zinc-containing metalloproteases: enkephalinase. The following applies: selectivity statement.
enkephalinase, sequence (P08473 whole entry, species assumed): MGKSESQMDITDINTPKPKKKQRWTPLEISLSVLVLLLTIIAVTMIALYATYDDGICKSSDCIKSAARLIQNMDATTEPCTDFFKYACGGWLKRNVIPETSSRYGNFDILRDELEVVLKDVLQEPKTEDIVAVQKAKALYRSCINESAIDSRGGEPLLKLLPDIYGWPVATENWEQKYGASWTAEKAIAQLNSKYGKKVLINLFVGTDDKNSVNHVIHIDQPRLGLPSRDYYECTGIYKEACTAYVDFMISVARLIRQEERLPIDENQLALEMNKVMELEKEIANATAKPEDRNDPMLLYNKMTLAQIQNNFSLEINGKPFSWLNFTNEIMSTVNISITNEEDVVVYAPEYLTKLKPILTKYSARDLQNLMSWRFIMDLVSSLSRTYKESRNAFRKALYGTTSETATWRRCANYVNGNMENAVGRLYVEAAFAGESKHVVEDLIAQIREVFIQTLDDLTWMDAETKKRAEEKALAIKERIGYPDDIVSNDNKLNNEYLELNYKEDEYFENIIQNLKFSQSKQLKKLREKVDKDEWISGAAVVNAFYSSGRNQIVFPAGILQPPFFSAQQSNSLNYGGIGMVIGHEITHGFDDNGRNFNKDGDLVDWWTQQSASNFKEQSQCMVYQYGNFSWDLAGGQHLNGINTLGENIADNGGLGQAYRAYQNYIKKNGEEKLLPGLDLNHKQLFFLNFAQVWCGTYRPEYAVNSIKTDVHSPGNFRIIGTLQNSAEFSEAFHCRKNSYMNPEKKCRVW
Experiment [1] concerns angiotensin converting enzymes. Put plainly: Selectivity against other zinc-containing metalloproteases: angiotensin converting enzymes. The following applies: selectivity statement.

neurolysin, sequence (Q9BYT8 38-704): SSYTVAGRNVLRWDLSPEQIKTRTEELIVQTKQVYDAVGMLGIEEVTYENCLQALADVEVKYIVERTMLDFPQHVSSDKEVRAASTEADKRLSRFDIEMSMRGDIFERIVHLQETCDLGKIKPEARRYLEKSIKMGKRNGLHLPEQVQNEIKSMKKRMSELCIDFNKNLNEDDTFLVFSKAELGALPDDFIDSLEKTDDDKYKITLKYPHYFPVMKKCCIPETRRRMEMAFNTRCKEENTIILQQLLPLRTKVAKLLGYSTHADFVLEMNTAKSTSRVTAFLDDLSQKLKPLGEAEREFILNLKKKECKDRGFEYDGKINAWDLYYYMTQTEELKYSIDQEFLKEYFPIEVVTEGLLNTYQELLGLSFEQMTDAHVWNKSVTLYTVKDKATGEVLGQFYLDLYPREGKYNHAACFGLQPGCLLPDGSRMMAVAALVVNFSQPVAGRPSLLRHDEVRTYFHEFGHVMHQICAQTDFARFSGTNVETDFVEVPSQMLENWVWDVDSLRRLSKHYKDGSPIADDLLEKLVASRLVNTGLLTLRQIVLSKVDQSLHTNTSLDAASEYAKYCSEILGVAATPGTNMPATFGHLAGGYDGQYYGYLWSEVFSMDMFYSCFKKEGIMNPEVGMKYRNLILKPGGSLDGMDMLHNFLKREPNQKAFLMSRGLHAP

Consider `CC(=O)NC1=C2SS(=O)(=O)C=C2N(C)C1=O` [thiolutin dioxide], for which, at neurolysin, the midpoint of inhibition, the IC50, lay at 0.6 µM. In addition, the blocking of enkephalinase entry on enkephalinase is “does not block”. Also, the “blocking of angiotensin converting enzymes” value in experiment [1] is “does not block”.
